Values joined by “and” are separate entries in the source; they are usually repeats but may differ in a detail not shown here. Identical values can stand only once. Toxic doses and inconclusive results are not listed.
System: BDF1 mice, P388 leukemia ip, median survival T/C
Experiment: NCI In Vivo Anticancer Drug Screen. Data for tumor model P388 Leukemia (intraperitoneal) in B6D2F1 (BDF1) mice
Conditions: endpoint: median survival time, higher = longer survival
Summary of the method: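 Transplantable tumour in mice; compound vs vehicle dosing; survival scored; ratio of treated to control reported.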

[1] = dose: 25.0 mg/kg/injection, schedule: Q01DX009 (ip), vehicle: water
[2] = dose: 25.0 mg/kg/injection, schedule: Q04DX003 (ip), vehicle: water
[3] = dose: 50.0 mg/kg/injection, schedule: Q01DX009 (ip), vehicle: water
[4] = dose: 50.0 mg/kg/injection, schedule: Q04DX003 (ip), vehicle: water
[5] = dose: 100.0 mg/kg/injection, schedule: Q01DX009 (ip), vehicle: water
[6] = dose: 100.0 mg/kg/injection, schedule: Q04DX003 (ip), vehicle: water
[7] = dose: 200.0 mg/kg/injection, schedule: Q04DX003 (ip), vehicle: water
[8] = dose: 25.0 mg/kg/injection, schedule: Q01DX009 (ip), vehicle: saline with Tween-80
[9] = dose: 50.0 mg/kg/injection, schedule: Q01DX009 (ip), vehicle: saline with Tween-80
[10] = dose: 100.0 mg/kg/injection, schedule: Q01DX009 (ip), vehicle: saline with Tween-80
[11] = dose: 200.0 mg/kg/injection, schedule: Q01DX009 (ip), vehicle: saline with Tween-80
[12] = dose: 25.0 mg/kg/injection, schedule: Q01DX009 (ip), vehicle: saline
[13] = dose: 50.0 mg/kg/injection, schedule: Q01DX009 (ip), vehicle: saline
[14] = dose: 100.0 mg/kg/injection, schedule: Q01DX009 (ip), vehicle: saline
[15] = dose: 100.0 mg/kg/injection, schedule: Q04DX003 (ip), vehicle: saline
[16] = dose: 200.0 mg/kg/injection, schedule: Q04DX003 (ip), vehicle: saline
[17] = dose: 400.0 mg/kg/injection, schedule: Q01DX009 (ip), vehicle: saline
[18] = dose: 400.0 mg/kg/injection, schedule: Q04DX003 (ip), vehicle: saline
[19] = dose: 100.0 mg/kg/injection, schedule: Q01DX001 (ip), vehicle: Klucel (hydroxypropylcellulose) (HPC)
[20] = dose: 100.0 mg/kg/injection, schedule: Q04DX003 (ip), vehicle: Klucel (hydroxypropylcellulose) (HPC)
[21] = dose: 200.0 mg/kg/injection, schedule: Q01DX001 (ip), vehicle: Klucel (hydroxypropylcellulose) (HPC)
[22] = dose: 200.0 mg/kg/injection, schedule: Q04DX003 (ip), vehicle: Klucel (hydroxypropylcellulose) (HPC)
[23] = dose: 400.0 mg/kg/injection, schedule: Q01DX001 (ip), vehicle: Klucel (hydroxypropylcellulose) (HPC)
[24] = dose: 400.0 mg/kg/injection, schedule: Q04DX003 (ip), vehicle: Klucel (hydroxypropylcellulose) (HPC)
[25] = dose: 200.0 mg/kg/injection, schedule: Q01DX009 (ip), vehicle: saline

With O=c1[nH]c(=O)c2nccnc2[nH]1 the T/C (dose: 12.5 mg/kg/injection, schedule: Q01DX009 (ip), vehicle: water) was 86 % of control, the T/C (dose: 12.5 mg/kg/injection, schedule: Q04DX003 (ip), vehicle: water) was 266 % of control and 120 % of control and the T/C [1] was 111 % of control. For the same compound, the T/C [2] was 270 % of control and 113 % of control, the T/C [3] was 92 % of control and the T/C [4] was 266 % of control and 111 % of control. The T/C [5] was 104 % of control, the T/C [6] was 268 % of control and 102 % of control and the T/C [7] was 95 % of control.

With COc1cc(C=O)cc(I)c1O the T/C (dose: 12.5 mg/kg/injection, schedule: Q01DX009 (ip), vehicle: saline sonified) was 105 % of control, the T/C (dose: 12.5 mg/kg/injection, schedule: Q04DX003 (ip), vehicle: saline with Tween-80) was 86 % of control and the T/C (dose: 25.0 mg/kg/injection, schedule: Q01DX009 (ip), vehicle: saline sonified) was 94 % of control. The T/C (dose: 25.0 mg/kg/injection, schedule: Q04DX003 (ip), vehicle: saline with Tween-80) was 90 % of control, the T/C (dose: 50.0 mg/kg/injection, schedule: Q01DX009 (ip), vehicle: saline sonified) was 100 % of control and the T/C (dose: 50.0 mg/kg/injection, schedule: Q04DX003 (ip), vehicle: saline with Tween-80) was 100 % of control.

For CC(C)CCCC(C)C1CCC2C3CC=C4CC(OP(=O)(N5CC5)N5CC5)CCC4(C)C3CCC12C (centres undefined), the T/C [8] was 98 % of control, the T/C [9] was 100 % of control and the T/C [10] was 117 % of control. For the same compound, the T/C [11] was 110 % of control.

With CC(=O)/C(C1=NCCC1)=C(/C)O the T/C [12] was 109 % of control, the T/C [13] was 100 % of control and the T/C [14] was 100 % of control.

In the case of O=C(/C=C/c1ccc([N+](=O)[O-])cc1)c1ccc(Cl)cc1, the T/C [10] is reported as 90 % of control, the T/C (dose: 100.0 mg/kg/injection, schedule: Q04DX003 (ip), vehicle: saline with Tween-80) is reported as 95 % of control and the T/C [11] is reported as 90 % of control. For the same compound, the T/C (dose: 200.0 mg/kg/injection, schedule: Q04DX003 (ip), vehicle: saline with Tween-80) was 90 % of control, the T/C (dose: 400.0 mg/kg/injection, schedule: Q01DX009 (ip), vehicle: saline with Tween-80) was 100 % of control and the T/C (dose: 400.0 mg/kg/injection, schedule: Q04DX003 (ip), vehicle: saline with Tween-80) was 100 % of control.

For COc1ccc2nc(Cl)c(C)c(C)c2c1, the T/C (dose: 12.5 mg/kg/injection, schedule: Q01DX009 (ip), vehicle: saline) was 96 % of control, the T/C [12] was 88 % of control and the T/C (dose: 25.0 mg/kg/injection, schedule: Q04DX003 (ip), vehicle: saline) was 100 % of control. The T/C [13] was 93 % of control, the T/C (dose: 50.0 mg/kg/injection, schedule: Q04DX003 (ip), vehicle: saline) was 100 % of control and the T/C [15] was 109 % of control. The T/C [16] was 90 % of control, the T/C [17] was 92 % of control and the T/C [18] was 100 % of control.

In the case of O=[N+]([O-])c1cc(C(F)(F)F)cc([N+](=O)[O-])c1N1CCCC(n2cccc2)C1 (centres undefined), the T/C [9] is reported as 107 % of control, the T/C [10] is reported as 109 % of control and the T/C [11] is reported as 118 % of control.

With CS(=O)(=O)OCCN(CCOS(C)(=O)=O)c1ccc(C(=O)O)cc1 the T/C (dose: 33.0 mg/kg/injection, schedule: Q01DX009 (ip), vehicle: saline with Tween-80) was 195 % of control, the T/C [9] was 200 % of control and the T/C (dose: 75.0 mg/kg/injection, schedule: Q01DX009 (ip), vehicle: saline with Tween-80) was 236 % of control. The T/C (dose: 300.0 mg/kg/injection, schedule: Q04DX003 (ip), vehicle: saline with Tween-80) was 113 % of control.

With Cc1nn(CCO)c(-c2ccccc2)c1-n1on1-c1c(C)nn(CCO)c1-c1ccccc1 the T/C [9] was 101 % of control.

With CNC(=S)N/N=C(\C)c1snc(C)c1Br the T/C [8] was 94 % of control, the T/C [9] was 103 % of control and the T/C [10] was 96 % of control.

CC(=O)c1cnn(-c2ccccc2)c1C was tested, and the T/C [19] was 104 % of control, the T/C (dose: 100.0 mg/kg/injection, schedule: Q01DX009 (ip), vehicle: other) was 105 % of control and the T/C [20] was 104 % of control. The T/C [21] was 109 % of control, the T/C (dose: 200.0 mg/kg/injection, schedule: Q01DX009 (ip), vehicle: other) was 100 % of control and the T/C [22] was 86 % of control. The T/C [23] was 109 % of control, the T/C (dose: 400.0 mg/kg/injection, schedule: Q01DX009 (ip), vehicle: other) was 100 % of control and the T/C [24] was 90 % of control.

O=C(NC1CSSC1)C(Cc1ccccc1)N1C(=O)c2ccccc2C1=O (centres undefined) was tested, and the T/C [1] was 104 % of control, the T/C [2] was 90 % of control and the T/C [3] was 95 % of control. The T/C [4] was 107 % of control, the T/C [5] was 108 % of control and the T/C [6] was 98 % of control. The T/C (dose: 200.0 mg/kg/injection, schedule: Q01DX009 (ip), vehicle: water) was 108 % of control, the T/C [7] was 100 % of control and the T/C (dose: 400.0 mg/kg/injection, schedule: Q01DX009 (ip), vehicle: water) was 100 % of control. For the same compound, the T/C (dose: 400.0 mg/kg/injection, schedule: Q04DX003 (ip), vehicle: water) was 98 % of control.

With CN(C)CC(Cl)CCl (centres undefined) the T/C [13] was 103 % of control and 118 % of control, the T/C (dose: 178.0 mg/kg/injection, schedule: Q01DX009 (ip), vehicle: saline) was 178 % of control and the T/C [25] was 118 % of control and 168 % of control and 209 % of control. The T/C (dose: 266.0 mg/kg/injection, schedule: Q01DX009 (ip), vehicle: saline) was 190 % of control and the T/C [17] was 226 % of control and 200 % of control.

For Cc1cccc(-n2nc3c(=O)n(C)c(=O)n(C)c3nc2=O)c1, the T/C (dose: 100.0 mg/kg/injection, schedule: Q01DX001 (ip), vehicle: saline with Tween-80) was 88 % of control, the T/C (dose: 200.0 mg/kg/injection, schedule: Q01DX001 (ip), vehicle: saline with Tween-80) was 96 % of control and the T/C (dose: 400.0 mg/kg/injection, schedule: Q01DX001 (ip), vehicle: saline with Tween-80) was 92 % of control.

In the case of COc1ccc(N2CSC(=S)N(c3ccc(OC)cc3)C2)cc1, the T/C [19] is reported as 100 % of control, the T/C [20] is reported as 95 % of control and the T/C [15] is reported as 87 % of control. For the same compound, the T/C [21] was 87 % of control, the T/C [22] was 91 % of control and the T/C [23] was 95 % of control. For the same compound, the T/C [24] was 104 % of control and the T/C [18] was 100 % of control.

For NC(=O)C(c1ccccc1)N1CCCCC1 (centres undefined), the T/C (dose: 6.25 mg/kg/injection, schedule: Q01DX009 (ip), vehicle: Klucel (hydroxypropylcellulose) (HPC)) was 109 % of control, the T/C (dose: 12.5 mg/kg/injection, schedule: Q01DX009 (ip), vehicle: Klucel (hydroxypropylcellulose) (HPC)) was 95 % of control and the T/C (dose: 25.0 mg/kg/injection, schedule: Q01DX009 (ip), vehicle: Klucel (hydroxypropylcellulose) (HPC)) was 95 % of control. For the same compound, the T/C (dose: 25.0 mg/kg/injection, schedule: Q04DX003 (ip), vehicle: Klucel (hydroxypropylcellulose) (HPC)) was 104 % of control, the T/C (dose: 50.0 mg/kg/injection, schedule: Q01DX009 (ip), vehicle: Klucel (hydroxypropylcellulose) (HPC)) was 91 % of control and the T/C (dose: 50.0 mg/kg/injection, schedule: Q04DX003 (ip), vehicle: Klucel (hydroxypropylcellulose) (HPC)) was 104 % of control. The T/C [20] was 108 % of control.

For CCSc1nc(C(OC)OC)c(Cc2ccccc2)c(=O)[nH]1, the T/C [20] was 90 % of control, the T/C [22] was 90 % of control and the T/C [24] was 90 % of control.

With C#CCOCC(O)CN (centres undefined) the T/C [14] was 100 % of control, the T/C [15] was 110 % of control and the T/C [25] was 120 % of control. For the same compound, the T/C [16] was 100 % of control, the T/C [17] was 104 % of control and the T/C [18] was 100 % of control.

With COc1cccc2c1C(=O)c1c(O)c3c(c(O)c1C2=O)CC(O)(/C(C)=N/NC(=O)CCC(=O)N/N=C(\C)C1(O)Cc2c(O)c4c(c(O)c2C(OC2CC(N)C(O)C(C)O2)C1)C(=O)c1c(OC)cccc1C4=O)CC3OC1CC(N)C(O)C(C)O1 (centres undefined) the T/C (dose: 14.4 mg/kg/injection, schedule: Q04DX003 (ip), vehicle: water) was 158 % of control and the T/C (dose: 40.0 mg/kg/injection, schedule: Q04DX003 (ip), vehicle: water) was 109 % of control.

Cc1csc2ccccc12 was tested, and the T/C (dose: 12.5 mg/kg/injection, schedule: Q01DX009 (ip), vehicle: saline with Tween-80) was 111 % of control, the T/C [8] was 102 % of control and the T/C [9] was 119 % of control.

Source: PubChem BioAssay AID328 (DTP/NCI, 2004)
